According to patent US6492335B1, “Glycoconjugates from modified camptothecin derivatives (20-O-linkage)” (Bayer Aktiengesellschaft, priority 1996, dated 2002):
“And” between values parts separate entries of the source, which are not always exact repeats. Equal entries are not always repeated. Structures can show the parent of a compound that is named as a salt. Where two headings read alike, the source gives them in different places.

Legend:
HT 29 = test: Growth inhibition test (MTT) for cytotoxic properties; type: cell-based, human
Method: (§1) The human large intestine cell lines SW 480 and HT 29 (ATCC No. CCL 228 and HBT 38) and the mouse melanoma cell line B16F10 were grown in Roux dishes in RPMI 1640 medium with addition of 10% FCS. They were then trypsinized and taken up in RPMI plus 10% FCS to a cell count of 50,000 cells/ml. 100 μl of cell suspension/well were added to a 96 microwell plate and incubated for 1 day at 37° C. in a CO2 incubator. A further 100 μl of RPMI Medium and 1 μl of DMSO containing the test substances were then added. The growth was checked after day 3 and day 6. To this end, 40 μl of MTT solution (3-(4,5-dimethylthiazol-2-yl)-2,5-diphenyltetrazoline bromide) having a starting concentration of 5 mg/ml of H2O were added to each microwell. Incubation was carried out for 5 hours in a CO2 incubator at 37° C. The medium was then aspirated and 100 μl of i-propanol/well were added. After shaking for 30 min with 100 μl of H2O, the extinction was measured at 540 nm using a Titertek Multiscan MCC/340 (Flow).
(§2) The cytotoxic action is indicated in Table 1 as the IC50 value in each case for the SW 480 and HT 29 and B16F10 cell lines: […]

SW 480 = test: as above; type: cell-based, human
Method: as §1, §2

B16F10 = test: as above; type: cell-based, mouse
Method: as §1, §2

[1] = tested on: mouse bone marrow stem cells; test: Inhibition of the CSF-induced proliferation of mouse bone marrow stem cells (colony formation); conditions: recombinant murine GM-CSF, 7 days
Method: Bone marrow cells were washed out of mice femurs. 10^5 cells were incubated at 37° C. and 7% CO2 in McCoy 5A medium (0.3% agar) together with recombinant murine GM-CSF (Genzyme; stem cell colony formation) and the substances (10^−4 to 100 μg/ml). 7 days later, the colonies (<50 cells) and clusters (17-50 cells) were counted.

[2] = In vivo inhibition of tumour growth in the nude mouse model; conditions: NMRI nu/nu, mouse, in vivo, ip; nude mice, i.p. on day 1, 2 and 3; read-out: Maximum tolerable dose (MTD)
Method: (§3) For all in vivo experiments for investigation of the inhibition of tumour growth athymic nude mice (NMRI nu/nu strain) were used. The selected large-cell lung carcinoma LXFL 529 was grown by serial passage in nude mice. The human origin of the tumour was confirmed by isoenzymatic and immunohistochemical methods.
(§4) The tumour was implanted subcutaneously into both flanks of 6 to 8 week old nu/nu nude mice. The treatment was started, depending on the doubling time, as soon as the tumours had reached a diameter of 5-7 mm. The mice were assigned to the treatment group and the control group (5 mice per group with 8-10 assessable tumours) by randomization. The individual tumours of the control group all grew progessively.
(§5) The size of the tumours was measured in two dimensions by means of a slide gauge. The tumour volume, which correlated well with the cell count, was then used for all evaluations. The volume was calculated according to the formula “length×breadth×breadth/2” ([a×b^2]/2, a and b represent two diameters at right angles).
(§6) The values of the relative tumour volume (RTV) were calculated for each individual tumour by dividing the tumour size on day X with the tumour size on day 0 (at the time of randomization). The mean values of the RTV were then used for the further evaluation.
(§7) The inhibition of the increase of the tumour volume (tumour volume of the test group/control group, T/C, in per cent) was the final measured value.
(§8) The administration of the compounds was carried out intraperitoneally (i.p.) on day 1, 2 and 3 after randomization.

[3] = tested on: large-cell lung carcinoma LXFL 529; test: as above; conditions: for Survival time: individual mice
Method: as §3, §4, §5, §6, §7, §8

[4] = human large intestine cell line HT 29, MTT, read-out: IC50 HT 29
[5] = SW480, human large intestine cell line SW 480, MTT, read-out: IC50 SW 480
[6] = B16-F10, mouse melanoma cell line B16F10, MTT, read-out: IC50 B16F10
[7] = 6.25 mg/kg/day i.p. on day 1, 2 and 3
[8] = 12.5 mg/kg/day (MTD) i.p. on day 1, 2 and 3

Structure (SMILES)	IC50 (HT 29; [4]) [nM]	IC50 (SW 480; [5]) [nM]	IC50 (B16F10; [6]) [nM]	further results
CCc1c2c(nc3ccccc13)-c1cc3c(c(=O)n1C2)COC(=O)C3(CC)OC(=O)[C@@H](NC(=O)[C@H](CCCCN)NC(=S)Nc1ccc(OC2OC(C)C(O)C(OC)C2O)cc1)C(C)C (stereo partly drawn) [Example 1.5, 7-Ethyl-20-O-{N^α-[O-(3-O-methyl-β-L-fucopyranosyl)-4-hydroxyl-phenyl-amino-thiocarbonyl]-lysyl-valyl)-camptothecin, hydrochloride]	60	100	300	
CC[C@@]1(O)C(=O)OCc2c1cc1n(c2=O)Cc2cc3c(N)cccc3nc2-1 [9-amino-camptothecin]				IC50, inhibition of the CSF-induced proliferation of mouse bone marrow stem cells [1]: 1 ng/mL
CC[C@@]1(OC(=O)[C@H](C)NC(=O)[C@H](CCCCNC(=S)Nc2ccc(OC3O[C@@H](C)[C@@H](O)[C@@H](OC)[C@@H]3O)cc2)NC(=S)Nc2ccc(OC3O[C@@H](C)[C@@H](O)[C@@H](OC)[C@@H]3O)cc2)C(=O)OCc2c1cc1n(c2=O)Cc2cc3c(N)cccc3nc2-1 (stereo partly drawn) [Example 3.1, 20(S)-9-Amino-20-O-{N^α,N^ε-bis-[O-(3-O-methyl-β-L-fucopyranosyl)4-hydroxy-phenylamino-thiocarbonyl]-lysyl-alanyl}-camptothecin]	8	10	150	
CCc1c2c(nc3ccc(O)cc13)-c1cc3c(c(=O)n1C2)COC(=O)C3(CC)OC(=O)[C@@H](NC(=O)[C@H](CCCCN)NC(=S)Nc1ccc(OC2OC(C)C(O)C(OC)C2O)cc1)C(C)C (stereo partly drawn) [Example 6.1, 7-Ethyl-10-hydroxy-20-O-{N^α-[O-methyl-β-L-fucopyranosyl)-4-hydroxy-phenylamino-thiocarbonyl]-lysyl-valyl}-camptothecin, hydrochloride]	200	150	3000	
CC[C@@]1(OC(=O)[C@H](CC(C)C)NC(=O)[C@H](CCCCN)NC(=S)Nc2ccc(O[C@H]3O[C@@H](C)[C@@H](O)[C@@H](OC)[C@@H]3O)cc2)C(=O)OCc2c1cc1n(c2=O)Cc2cc3cc4c(cc3nc2-1)OCO4 [Example 2.4, 20(S)-10,11-Methylenedioxy-20-O-{N^α-[O-(3-O-methyl-β-L-fucopyranosyl)-4-hydroxy-phenylamino-thiocarbonyl]-lysyl-leucyl}-camptothecin, hydrochloride]	3	5	10	
CCc1c2c(nc3ccccc13)-c1cc3c(c(=O)n1C2)COC(=O)[C@@]3(CC)OC(=O)[C@H](C)NC(=O)[C@H](CCCCNC(=S)Nc1ccc(OC2O[C@@H](C)[C@@H](O)[C@@H](OC)[C@@H]2O)cc1)NC(=S)Nc1ccc(OC2O[C@@H](C)[C@@H](O)[C@@H](OC)[C@@H]2O)cc1 (stereo partly drawn) [Example 1.1, 20(S)-7-Ethyl-20-O-{N^α, N^ε-bis-[O-(3-O-methyl-β-L-fucopyranosyl)-4-hydroxy-phenylamino-thiocarbony]-lysyl-alanyl}-camptothecin]	10	15	30	MTD at 3 days [2]: 12.5 mg/kg/day; Relative body weight on day 7 [3, 7]: 98 % of day 0; Relative tumour volume on day 14 [3, 7]: 32 % of day 0; Survival time [3, 7]: >21 days (4×) and 13 days; Relative body weight on day 7 [3, 8]: 95 % of day 0; Relative tumour volume on day 14 [3, 8]: 0.1 % of day 0; Survival time [3, 8]: >21 days
CCC1(OC(=O)C(C)NC(=O)[C@H](CCCCN)NC(=S)Nc2ccc(OC3OC(C)C(O)C(OCC(=O)O)C3O)cc2)C(=O)OCc2c1cc1n(c2=O)Cc2cc3cc4c(cc3nc2-1)OCO4 (stereo partly drawn) [Example 2.3, 20(S)-10,11-Methylenedioxy-20-O-{N^α-[O-(3-O-carboxymethyl-β-L-fucopyranosyl)-4-hydroxy-phenylamino-thiocarbonyl]-lysyl-alanyl}-camptothecin, hydrochloride]	3	6	9	
CC[C@@]1(OC(=O)[C@H](CC(C)C)NC(=O)[C@H](CCCCN)NC(=S)Nc2ccc(O[C@H]3O[C@@H](C)[C@@H](O)[C@@H](OC)[C@@H]3O)cc2)C(=O)OCc2c1cc1n(c2=O)Cc2c-1nc1cc3c(cc1c2CN1CCN(C)CC1)OCCO3 [Example 5.1, 20(S)-7-[4-(Methylpiperazino)methy]-10,11-(ethylenedioxy)-20-O-{N^α-[O-(3-O-methyl-β-L-fucopyranosyl)4-hydroxy-phenylamino-thiocarbonyl-lysyl-leucyl}-camptothecin, hydrochloride]	40	70	200	
CCC1(OC(=O)[C@H](C)NC(=O)[C@H](CCCCNC(=S)Nc2ccc(OC3O[C@@H](C)[C@@H](O)[C@@H](OC)[C@@H]3O)cc2)NC(=S)Nc2ccc(OC3O[C@@H](C)[C@@H](O)[C@@H](OC)[C@@H]3O)cc2)C(=O)OCc2c1cc1n(c2=O)Cc2cc3cc4c(cc3nc2-1)OCO4 (stereo partly drawn) [Example 2.1, 20(R,S)-10,11-Methylenedioxy-20-O-{N^α,N^ε-bis-[O-(3-O-methyl-β-L-fucopyranosyl)-4-hydroxy-phenylamino-thiocarbonyl]-lysyl-alanyl}-camptothecin]	5	7	15	
CCc1c2c(nc3ccccc13)-c1cc3c(c(=O)n1C2)COC(=O)[C@]3(O)CC [7-ethyl-camptothecin]				IC50, inhibition of the CSF-induced proliferation of mouse bone marrow stem cells [1]: 0.002 ng/mL
CC[C@@]1(OC(=O)[C@H](C)NC(=O)[C@H](CCCCNC(=S)Nc2ccc(OC3O[C@@H](C)[C@@H](O)[C@@H](OC)[C@@H]3O)cc2)NC(=S)Nc2ccc(OC3O[C@@H](C)[C@@H](O)[C@@H](OC)[C@@H]3O)cc2)C(=O)OCc2c1cc1n(c2=O)Cc2c-1nc1ccccc1c2COC(=O)[C@H](C)NC(=O)[C@H](CCCCNC(=S)Nc1ccc(OC2O[C@@H](C)[C@@H](O)[C@@H](OC)[C@@H]2O)cc1)NC(=S)Nc1ccc(OC2O[C@@H](C)[C@@H](O)[C@@H](OC)[C@@H]2O)cc1 (stereo partly drawn) [Example 4.1, 20(S)-7-{N^α,N^ε-bis-[O-(3-O-Methyl-β-L-fucopyranosyl)-4-hydroxy-phenylamino-thiocarbonylmino-thiocarbonyl]-lysyl-alanyloxymethyl}-20-O-{N^α,N^ε-bis-[O-(3-O-methyl-β-L-fucopyranosyl)-4-hydroxy-phenylamino-thiocarbonyl]-lysyl-alanyl}-camptothecin]				IC50 (HT 29; Homo sapiens, HT-29, read-out: IC50 HT 29): 40 nM; IC50 (SW 480; Homo sapiens, SW480, read-out: IC50 SW 480): 40 nM; IC50 (B16F10; Mus musculus, B16-F10, read-out: IC50 B16F10): 300 nM
